# Data: patent publication US11598701B1, “Method and system for lysing a liquid sample with augmented oxidizing agents to create a solution with a reduced microbial concentration and precipitate formation” (BIS SCIENCE LLC, priority 2021, dated 2023)
# “And” between values parts separate entries of the source, which are not always exact repeats. Equal entries are not always repeated.
# Test system: S. aureus ATCC 6538
# Assay: Antimicrobial suspension test of H2O2 with and without photon activation
# Assay type: cell-based
# Details: contact time 5 minutes; for Average CFU/ML: average of replicates; for CFU/ML: single replicate
SMILES,% reduction Compared to controls,LOG 10 Reduction compared to controls,Average CFU/ML [CFU/ML],CFU/ML,CFU/ML (listed as l ppm H2O2 no photon activation) [CFU/ML]
"OO [1 ppm H2O2 no photon activation, H2O2]",No reduction,No reduction,4.05E+06,4.10E+06 CFU/ML,4.10E+06
"OO [.3% H2O2 no photon activation, H2O2]",No reduction,No reduction,4.05E+06,4.10E+06 CFU/ML and 4.00E+06 CFU/ML,–
